Measurements as given in patent publication US7192746B2, “α-Isomaltosyltransferase, process for producing the same and use thereof” (Kabushiki Kaisha Hayashibara Seibutsu Kagaku Kenkyujo, priority 2000, dated 2007).

How the values were obtained:
[1] = test system: small intestinal mucosal enzyme
[2] = Thermostability; type: physicochemical; settings: 10% (w/v) aqueous solution, 120° C.; for Purity: HPLC
Protocol: After the heating, the aqueous solution was cooled under atmospheric conditions and measured for coloration degree and determined for purity on HPLC in Experiment 1. The coloration degree was evaluated based on the absorbance in a cell with a 1-cm light pass at a wavelength of 480 nm.

[3] = molecular target: T1, amylopsin (Homo sapiens, UniProt P04746); assay: Digestion test in vitro
T1 sequence (P04746 16-511): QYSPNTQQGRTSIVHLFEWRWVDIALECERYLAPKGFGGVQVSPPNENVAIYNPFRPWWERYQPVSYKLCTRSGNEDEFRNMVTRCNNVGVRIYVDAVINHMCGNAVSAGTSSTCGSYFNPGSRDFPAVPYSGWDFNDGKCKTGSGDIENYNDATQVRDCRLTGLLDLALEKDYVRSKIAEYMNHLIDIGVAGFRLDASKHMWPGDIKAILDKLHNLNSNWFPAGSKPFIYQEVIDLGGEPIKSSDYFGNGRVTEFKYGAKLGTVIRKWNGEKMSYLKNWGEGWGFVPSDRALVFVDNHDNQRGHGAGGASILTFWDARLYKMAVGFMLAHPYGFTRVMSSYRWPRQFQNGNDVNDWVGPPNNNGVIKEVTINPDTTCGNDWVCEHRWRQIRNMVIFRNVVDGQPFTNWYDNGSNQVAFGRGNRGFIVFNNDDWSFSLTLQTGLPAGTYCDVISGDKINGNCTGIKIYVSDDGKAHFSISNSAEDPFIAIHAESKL

[4] = test system: α-isomaltosyl-transferring enzyme from Arthrobacter globiformis A19; assay: Specificity to transferring acceptor; type: biochemical; settings: partially purified enzyme, panose as saccharide donor, 10 units/g substrate, 3.2% (w/v), 30° C., pH 6.0, 24 hours
In short: (§1)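 Each candidate acceptor was mixed with panose donor at equal concentration, then given 10 units/g substrate of enzyme (purified, or partially purified for strain A19) at 3.2% (w/v) total saccharide. Reactions ran 24 hours at 30° C., pH 6.0, and were scored for presence or absence of transfer product.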

[5] = test system: α-isomaltosyl-transferring enzyme from Arthrobacter ramosus S1; assay: Specificity to transferring acceptor; type: biochemical; settings: panose as saccharide donor, 10 units/g substrate, 3.2% (w/v), 30° C., pH 6.0, 24 hours
In short: as §1

[6] = test system: α-isomaltosyl-transferring enzyme from Bacillus globisporus N75; assay: Specificity to transferring acceptor; type: biochemical; settings: panose as saccharide donor, 10 units/g substrate, 3.2% (w/v), 30° C., pH 6.0, 24 hours
In short: as §1

[7] = test system: α-isomaltosyl-transferring enzyme from Bacillus globisporus C9; assay: Specificity to transferring acceptor; type: biochemical; settings: panose as saccharide donor, 10 units/g substrate, 3.2% (w/v), 30° C., pH 6.0, 24 hours
In short: as §1

[8] = test system: α-isomaltosyl-transferring enzyme from Bacillus globisporus C11; assay: Specificity to transferring acceptor; type: biochemical; settings: panose as saccharide donor, 10 units/g substrate, 3.2% (w/v), 30° C., pH 6.0, 24 hours
In short: as §1

## OCC1OC2OCC3O[C@H](O[C@H]4C(O)C(CO)OC(OCC5O[C@H](O[C@@H](C1O)C2O)C(O)C(O)[C@@H]5O)C4O)C(O)C(O)[C@@H]3O (stereo partly drawn) [Cyclotetrasaccharide, cyclo{→6)-α-D-glucopyranosyl-(1→3)-α-D-glucopyranosyl-(1→6)-α-D-glucopyranosyl-(1→3)-α-D-glucopyranosyl-(1→}]
[1]
  Decomposition percentage by digestive enzyme: 0.74%
  Digestibility by intestinal mucosal enzyme relative to maltitol: ⅕
[2]; heating time 0 min
  Coloration degree (A480 nm): 0.00
  Purity: 100%
[2]; heating time 30 min
  Coloration degree (A480 nm): 0.00
  Purity: 100%
[2]; heating time 60 min
  Coloration degree (A480 nm): 0.00
  Purity: 100%
[2]; heating time 90 min
  Coloration degree (A480 nm): 0.00
  Purity: 100%

## OC[C@@H](O)[C@@H](O[C@H]1O[C@H](CO)[C@@H](O)[C@H](O)[C@H]1O)[C@H](O)[C@@H](O)CO [Maltitol, maltitol]
[3]
  Decomposition percentage by digestive enzyme: 0.0%
[4]
  Product of transferring reaction, Enzyme of Stain A19: + (a saccharide-transferred product was formed in an amount of over one percent but below 10% to the total sugars)
[5]
  Product of transferring reaction, Enzyme of Strain S1: + (a saccharide-transferred product was formed in an amount of over one percent but below 10% to the total sugars)
[6]
  Product of transferring reaction, Enzyme of Strain N75: + (a saccharide-transferred product was formed in an amount of over one percent but below 10% to the total sugars)
[7]
  Product of transferring reaction, Enzyme of Strain C9: + (a saccharide-transferred product was formed in an amount of over one percent but below 10% to the total sugars)
[8]
  Product of transferring reaction, Enzyme of Strain C11: + (a saccharide-transferred product was formed in an amount of over one percent but below 10% to the total sugars)
